Measured values published in US9458337B2, “Curable resin composition, water-soluble ink composition, ink set, and image-forming method” (FUJIFILM CORPORATION, priority 2012, dated 2016).

Assay: Degree of solubility of polymerization initiators (3 mass % aqueous solution)
Format: physicochemical
Parameters: key: A: The polymerization initiator was fully dissolved at room temperature.; B: The polymerization initiator was slightly precipitated at room temperature, and was fully dissolved when being heated at 60° C.; The polymerization initiator was not fully dissolved even when being heated at 60° C
Conditions: 3 mass % aqueous solution of the polymerization initiator; room temperature / heated at 60° C.
Protocol: 3 mass % aqueous solutions were respectively prepared using Polymerization Initiators I-1 to I-5, I-8, and R-1 to R-4, and the degrees of solubility of the polymerization initiators were evaluated according to the following evaluation standards.
A: The polymerization initiator was fully dissolved at room temperature.
B: The polymerization initiator was slightly precipitated at room temperature, and was fully dissolved when being heated at 60° C.
C: The polymerization initiator was not fully dissolved even when being heated at 60° C.

| Degree of solubility | Compound |
| --- | --- |
| A | C[N+](C)(CCCS(=O)(=O)[O-])CCOc1ccc2c(=O)c3ccccc3sc2c1 [Compound I-1] |
| C | CC(C)(O)C(=O)c1ccc(OCCO)cc1 [Compound R-1] |
| A | Cc1c(OCC(O)C[N+](C)(C)C)cc2c(=O)c3ccccc3sc2c1C (centres unmarked) [Compound R-2] |

| Compound | Degree of solubility |
| --- | --- |
| COC(OC)(C(=O)c1ccc(OCC(=O)[O-])cc1)c1ccc(OCC(=O)[O-])cc1.[Na+].[Na+] [Compound R-3] | C |
| CCC(Cc1ccc(S(=O)(=O)O)cc1)(C(=O)c1ccc(N2CCOCC2)cc1)N(C)C (centres unmarked) [Compound R-4] | A |
